In US20240217973A1, “IMIDAZOPYRIDINE COMPOUNDS AND USE THEREOF” (MEDSHINE DISCOVERY INC., priority 2021, published 2024):

Assays:
plasma proteins [1] = test: Plasma protein binding experiment (PPB), H; format: in vitro ADME, human; conditions: 2 μM, 4 hours dialysis
Procedure: (§1) Experimental operation: 995 μL of blank plasma of each genus was taken, 5 μL of working solution of test compound (400 μM) or working solution of warfarin (400 μM) was added, so that the final concentrations of the test compound and warfarin in the plasma sample was 2 μM. The sample was mixed thoroughly. The final concentration of the organic phase DMSO was 0.5%; 50 μL of plasma samples of the test compound and warfarin were pipetted into the sample receiving plate (three parallels), and the corresponding volume of the corresponding blank plasma or buffer was immediately added so that the final volume of each sample well was 100 μL, with a volume ratio of 1:1 for plasma: dialysis buffer, and then 500 μL of stop solution was added to these samples, and these samples would be used as a T0 sample for the recovery and stability determination. […] All samples were analyzed by LC/MS/MS after protein precipitation, and the protein binding rate and recovery rate were calculated by the formula: % Unbound=100*F/T, % Bound=100−% Unbound, % Recovery 100*(F+T) T0 (where F was the peak area ratio of the compound in the dialysate after 4 hours of dialysis; T was the peak area ratio of the compound in the plasma after 4 hours of dialysis, and T0 was the peak area ratio of the compound in the plasma sample at zero time).

plasma proteins [2] = test: Plasma protein binding experiment (PPB), D; format: in vitro ADME, dog; conditions: 2 μM, 4 hours dialysis
Procedure: as §1

plasma proteins [3] = test: Plasma protein binding experiment (PPB), R; format: in vitro ADME, rat; conditions: 2 μM, 4 hours dialysis
Procedure: as §1

plasma proteins [4] = test: Plasma protein binding experiment (PPB), M; format: in vitro ADME, mouse; conditions: 2 μM, 4 hours dialysis
Procedure: as §1

[5] = Pharmacokinetic evaluation of compounds in mice; format: in vivo, CD-1 mice; conditions: mouse, plasma, CD-1 male mice
Procedure: Experimental purpose: To test the in vivo pharmacokinetic data of compounds in CD-1 mice.
(§2) The compound was mixed with the solvent 5% DMSO/5% Solutol/90% H2O, vortexed and sonicated to prepare a 0.5 mg/mL clear solution. CD-1 male mice aged 7 to 10 weeks were selected, and administered the candidate compound solution intravenously. Whole blood was collected for a certain period of time, and plasma was prepared. The drug concentration was analyzed by LC-MS/MS method, and pharmacokinetic parameters were calculated by Phoenix WinNonlin software (Pharsight Company, USA).
as §2, with “orally.” for “intravenously.”

[6] = Pharmacokinetic evaluation of compounds in dogs; format: in vivo; conditions: dog, plasma, beagle dogs
Procedure: Experimental purpose: To test the in vivo pharmacokinetic data of compounds in beagle dogs.
as §2, with “The beagle dogs” for “CD-1 male mice aged 7 to 10 weeks”, “were” for “were selected, and”, “calculated.” for “calculated by Phoenix WinNonlin software (Pharsight Company, USA).”
The compound was mixed with the solvent 5% DMSO/5% Solutol/90% H2O, vortexed and sonicated to prepare a 0.5 mg/mL clear solution. The beagle dogs were administered candidate compound solutions orally. Whole blood was collected for a certain period of time, and plasma was prepared. The drug concentration was analyzed by LC- MS/MS method, and pharmacokinetic parameters were calculated.

[7] = test system: experimental autoimmune encephalomyelitis (EAE) model; test: In vivo efficacy of EAE in C57BL/6 mice; conditions: C57BL/6 female mice, 5 mg/kg
Procedure: Experimental methods: Experimental autoimmune encephalomyelitis (EAE) model was established in 10-week-old C57BL/6 female mice, and the animals were randomly divided into two groups according to their weight, of which, group G1 was a pure modeling group with 5 animals, and group G2 was a subject 002 group with 7 animals. On day 0, 100 μL of myelin oligodendrocyte glycoprotein (MOG) emulsion was injected subcutaneously into the hind flank of each animal in the G1-G2 group at two points, totaling 200 μL. After 2 hours and 48 hours, respectively, 200 μL of pertussis toxin (PTX) was injected subcutaneously into the animals of groups G1-G2. The in vivo experiment was finished on day 22, and no treatment was given to group G1 from day 0; G2 group was administered 5 mg/kg of subject 002 once a day for […]. The animals in each group were weighed and scored (including tail weakness, claudication, hind limb paralysis, hind limb paralysis and other symptoms) every 2 days. [table] [table]

[8] = IV, 1.0 mg/kg (002), 1.2 mg/kg (003B)
[9] = PO, 2.9 mg/kg (002), 2.85 mg/kg (003B)
[10] = IV, 0.49 mg/kg (002), 0.5 mg/kg (003B)

Nc1nccc2c1n(-c1ccc(Oc3ccccc3)cc1)c(=O)n2[C@@H]1CCCN(C(=O)/C=C/CF)C1 [Compound 002]
Unbound PPB (plasma proteins [1]): 8.2%
Unbound PPB (plasma proteins [2]): 4.3%
Unbound PPB (plasma proteins [3]): 1.3%
Unbound PPB (plasma proteins [4]): 4.5%
AUC(0-inf) [5, 8]: 0.697 µM·h
C0 [5, 8]: 4.19 µM
Vd [5, 8]: 0.76 L/kg
clearance [5, 8]: 49 mL/min/kg
half-life [5, 8]: 16.8 min
AUC(0-inf) [5, 9]: 0.83 µM·h
Cmax [5, 9]: 1190 nM
Tmax [5, 9]: 4.98 min
bioavailability [5, 9]: 39.7%
half-life [5, 9]: 21 min
AUC(0-inf) [6, 10]: 0.684 µM·h
C0 [6, 10]: 1710 nM
Vd [6, 10]: 1.5 L/kg
clearance [6, 10]: 25.6 mL/min/kg
half-life [6, 10]: 58.2 min
AUC(0-inf) ([6]; PO, 2.0 mg/kg): 2.25 µM·h
Cmax ([6]; PO, 2.0 mg/kg): 1140 nM
Tmax ([6]; PO, 2.0 mg/kg): 30 min
bioavailability ([6]; PO, 2.0 mg/kg): 82.2%
half-life ([6]; PO, 2.0 mg/kg): 42.6 min
efficacy in EAE model / severity of the disease (in words) ([7]; QD, compared with the modeling group): effective in reducing the severity of the disease
Scores of animals on day 20 after administration ([7]; EAE model, QD × 29, moulding group 1.8): 0.4
